According to publication PMC5926202, “Creation of a nanoformulated cabotegravir prodrug with improved antiretroviral profiles” (Biomaterials, 2017):
Converted amounts (≈) assume the structure as drawn.

Columns and labels:
[1] = Solubility test in water and 1-octanol; assay type: physicochemical; details: room temperature; for solubility at 24 h: water, thermodynamic from solid, 24 h mixing
Protocol: The solubilities of CAB and MCAB in water and 1-octanol were determined by adding excess drug to each solution at room temperature then mixing for 24 h. Samples were centrifuged at 20,000 × g for 10 min to pellet insoluble drug. The supernatants containing solubilized drug were vacuum-dried then re-dispersed in methanol for drug concentration measurement using a Waters ACQUITY ultra performance liquid chromatography (UPLC) H-Class System with TUV detector and Empower 3 software (Milford, MA, USA). […] Drug content was quantitated by comparison of peak area to those of known standards (0.05–50 µg/mL in methanol).

[2] = tested on: HIV-1ADA in human monocyte derived macrophages (MDM); assay: Antiretroviral activity of CAB and MCAB in HIV-1ADA infected MDM (HIV RT activity); assay type: cell-based; details: Human immunodeficiency virus 1, 168 h, HIV-1ADA MOI 0.1, MDM, 7 days after challenge
Protocol: (E) Antiretroviral activities of CAB and MCAB were evaluated in HIV-1ADA infected human monocyte derived macrophages (MDM). Inhibition rate was presented as percentage of reduced HIV reverse transcriptase (RT) activity as compared to positive control RT activity. Nonlinear regression was performed using log (drug concentration) vs. Inhibition rate with variable slope, and drug concentration for 50% inhibition (IC50) was calculated. […] Data are expressed as mean ± SD for n= 6 samples per group.
Monocyte-derived macrophages (MDM) were utilized. […] Briefly, monocytes were obtained by leukapheresis of HIV-1/2 and hepatitis B seronegative donor blood cells, followed by purification via countercurrent centrifugal elutriation. Elutriated monocytes were cultured as adherent cells in DMEM supplemented with 10% heat-inactivated pooled human serum, 10 µg/mL ciprofloxacin, 50 µg/mL gentamicin, and 1000 U/mL recombinant macrophage colony stimulating factor. Cells were maintained at 37 °C in a 5% CO2 incubator. Seven days later, differentiated macrophages were treated with various concentrations (0.06–1000 nM) of native CAB or MCAB for 30 min, followed by HIV-1ADA challenge at a multiplicity of infection (MOI) of 0.1 infectious viral particles/cell. […]

HIV = details: cited from earlier work
[3] = long-acting parenteral; cited from earlier work

Row | increase in 1-octanol solubility compared to CAB [1] [fold] | SMILES | solubility at 24 h [1] [µg/mL] | IC50 [2] [nM] | 4 × PA-IC90 (HIV; 4 times protein-binding-adjusted 90% inhibitory concentration ref 19-22) [µg/mL] | PA-IC90 (HIV; protein-binding-adjusted ref 24) [µg/mL] | half-life [3]
1 | 30 | CCCCCCCCCCCCCC(=O)Oc1c2n(cc(C(=O)NCc3ccc(F)cc3F)c1=O)CC1OCC(C)N1C2=O (centres unmarked) [MCAB] | 5.6 ± 1.8 (≈ 9.1 µM) | 3.4 |  |  | 
2 |  | C[C@H]1CO[C@@H]2Cn3cc(C(=O)NCc4ccc(F)cc4F)c(=O)c(O)c3C(=O)N12 [CAB, cabotegravir] | 31.9 ± 14.4 (≈ 78.7 µM) | 2.5 | 0.66 | 0.166 | up to 54 days
